Molecular target: T1, Purified P450arom (aromatase) reconstituted with P450-reductase (CPR) (Homo sapiens, UniProt P11511)
T1 sequence (P11511 1-503): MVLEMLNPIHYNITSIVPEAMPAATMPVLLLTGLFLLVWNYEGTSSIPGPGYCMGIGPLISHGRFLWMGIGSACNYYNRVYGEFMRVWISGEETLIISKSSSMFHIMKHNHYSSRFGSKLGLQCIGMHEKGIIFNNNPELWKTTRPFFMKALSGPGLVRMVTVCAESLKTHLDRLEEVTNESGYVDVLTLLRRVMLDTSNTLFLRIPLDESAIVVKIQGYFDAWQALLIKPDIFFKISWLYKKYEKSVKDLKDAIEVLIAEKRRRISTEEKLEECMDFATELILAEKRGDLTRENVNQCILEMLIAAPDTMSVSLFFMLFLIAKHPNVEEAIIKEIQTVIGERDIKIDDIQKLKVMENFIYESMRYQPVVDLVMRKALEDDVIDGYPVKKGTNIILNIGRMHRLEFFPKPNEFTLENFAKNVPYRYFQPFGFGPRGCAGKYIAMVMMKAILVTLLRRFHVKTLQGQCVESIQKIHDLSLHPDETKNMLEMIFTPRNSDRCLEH
Test: Measurement of aromatase activity by 3H-water method
Type: biochemical
Conditions: substrate 0.24 μM [1β-3H, 4-14C] androstenedione, 37° C., 20 minutes

[1] = compound concentration 0.1 (μmol)
[2] = compound concentration 1 (μmol)
[3] = compound concentration 10 (μmol)

SMILES: C[C@]12CCC(=O)C(=[N+]=[N-])C1=CC[C@@H]1[C@@H]2CC[C@]2(C)C(=O)CC[C@@H]12 [HDDG-023]
- % Inhibition [1]: 24%
- % Inhibition [2]: 30%
- % Inhibition [3]: 33%

SMILES: CC/C=C/CO[C@@H]1C[C@@H]2[C@H](CC[C@]3(C)C(=O)CC[C@@H]23)[C@@]2(C)C=CC(=O)C=C12 [HDDG-061, (6R,8R,9S,10R,13S,14S)-10,13-dimethyl-6-((E)-pent-2-en-1-yloxy)-7,8,9,10,11,12,13,14,15,16-decahydro-3H-cyclopenta[α]phenanthrene-3,17(6H)-dione]
- % Inhibition [1]: 96%
- % Inhibition [2]: 93%

SMILES: COC1=C(O)C=C[C@@]2(C)C1=CC[C@@H]1[C@@H]2CC[C@]2(C)C(=O)CC[C@@H]12 [HDDG-011]
- % Inhibition [3]: 37%

SMILES: N#Cc1ccc(C(c2ccc(C#N)cc2)n2cncn2)cc1 [Letrazole, reference compound]
- % Inhibition [1]: 76%
- % Inhibition [2]: 98%

SMILES: C#CCO[C@@H]1C[C@@H]2[C@H](CC[C@]3(C)C(=O)CC[C@@H]23)[C@@]2(C)C=CC(=O)C=C12 [HDDG-026]
- % Inhibition [1]: 10%
- % Inhibition [2]: 35%
- % Inhibition [3]: 80%

SMILES: CCC#CCO[C@@H]1C[C@@H]2[C@H](CC[C@]3(C)C(=O)CC[C@@H]23)[C@@]2(C)C=CC(=O)C=C12 [HDDG-046, (6R,8S,9S,10R,13S,14S)-10,13-dimethyl-6-(pent-2-yn-1-yloxy)-7,8,9,10,11,12,13,14,15,16-decahydro-3H-cyclopenta[α]phenanthrene-3,17(6H)-dione]
- % Inhibition [1]: 89%
- % Inhibition [2]: 96%
- % Inhibition [3]: 99%

SMILES: C[C@]12CCC(=O)CC1=CC[C@@H]1[C@@H]2CC[C@]2(C)C(=O)CC[C@@H]12 [HDDG-018]
- % Inhibition [3]: 41%

SMILES: C[C@]12C=CC(=O)C=C1C=C[C@@H]1[C@@H]2CC[C@]2(C)C(=O)CC[C@@H]12 [HDDG-003]
- % Inhibition [2]: 67%
- % Inhibition [3]: 80%

SMILES: C[C@]12C=CC(=O)C=C1[C@H](O)C[C@@H]1[C@@H]2CC[C@]2(C)C(=O)CC[C@@H]12 [HDDG-010]
- % Inhibition [3]: 55%

SMILES: C#CC(C)(C)O[C@@H]1C[C@@H]2[C@H](CC[C@]3(C)C(=O)CC[C@@H]23)[C@@]2(C)C=CC(=O)C=C12 [HDDG-028]
- % Inhibition [1]: 18%
- % Inhibition [2]: 44%
- % Inhibition [3]: 35%

SMILES: C[C@]12CCC(=O)C=C1C(Br)C[C@@H]1[C@@H]2CC[C@]2(C)C(=O)CC[C@@H]12 (some centres unmarked) [HDDG-017]
- % Inhibition [3]: 64%

SMILES: CCO[C@@H]1C[C@@H]2[C@H](CC[C@]3(C)C(=O)CC[C@@H]23)[C@@]2(C)C=CC(=O)C=C12 [HDDG-025]
- % Inhibition [2]: 19%
- % Inhibition [3]: 39%

SMILES: CCCCCO[C@@H]1C[C@@H]2[C@H](CC[C@]3(C)C(=O)CC[C@@H]23)[C@@]2(C)C=CC(=O)C=C12 [HDDG-063, (6R,8R,9S,10R,13S,14S)-10,13-dimethyl-6-(pentyloxy)-7,8,9,10,11,12,13,14,15,16-decahydro-3H-cyclopenta[α]phenanthrene-3,17(6H)-dione]
- % Inhibition [1]: 96%
- % Inhibition [2]: 97%

SMILES: CCCCO[C@@H]1C[C@@H]2[C@H](CC[C@]3(C)C(=O)CC[C@@H]23)[C@@]2(C)CCC(=O)C=C12 [HDDG-052]
- % Inhibition [1]: 47%
- % Inhibition [2]: 95%
- % Inhibition [3]: 87%

SMILES: C[C@]12C=CC(O)=C(OCC#Cc3ccccc3)C1=CC[C@@H]1[C@@H]2CC[C@]2(C)C(=O)CC[C@@H]12 [HDDG-038]
- % Inhibition [1]: 22%
- % Inhibition [2]: 97%
- % Inhibition [3]: 91%

Source: patent US8969327B2, “Substituted androst-4-ene diones” (priority 2010, dated 2015)
